Data published in publication PMC11322472, “Enhancing [^177Lu]Lu-DOTA-TATE therapeutic efficacy in vitro by combining it with metronomic chemotherapeutics” (EJNMMI Research, 2024).
≈ marks a conversion by molar mass, not a printed value. Read-outs that look alike come from different tables or passages of the source. Blank lines part the entries; values can stand above or below the compound they belong to.

Tests used:
U2OS cells [1] = assay: [^177Lu]LuCl3 uptake; type: cell-based, human; settings: 0.97 MBq, 24-hour incubation, N = 3 (Figure S3)
Experimental: (§1) The following day, 0.97 MBq [^177Lu]LuCl3 was added to wells and incubated for 24 hours. […] Data is presented as both percentage uptake of total added activity and normalised as Bq/cell uptake.

U2OS + SSTR2A cells [2] = assay: [^177Lu]LuCl3 uptake; type: cell-based, human; settings: 0.97 MBq, 24-hour incubation, N = 3 (Figure S3)
Experimental: as §1

U2OS + SSTR2A cells [3] = assay: [^177Lu]LuCl3 and DOTA-TATE viability (MTT); type: cell-based, human; settings: MTT after 7 days
Experimental: 2x10^3 U2OS or U2OS+SSTR2A cells, after treatment for 24 hours with [^177Lu]LuCl3 (0.97 MBq) or DOTA-TATE (25 nM, U2OS+SSTR2A only), were reseeded in technical sextuplet wells in 96-well plates containing a final media volume of 180 µL/well. Dedicated wells with no cells present served as background signal controls. Plates were placed in the incubator and cells allowed to adhere and grow for 7 days. After 7 days, DMEM-HG was aspirated and replaced with 90 µL of basal DMEM-HG containing 0.5 mg/mL MTT. Plates were returned to the incubator for 4 h prior to aspiration of excess MTT. Formazan crystals were then dissolved with 50 µL/well DMSO for 2 minutes at RT under gentle agitation. Well absorbance at 570 nm wavelength was then immediately measured on a UV/Vis absorbance microplate reader (SPECTROstar® Nano, BMG LABTECH). Metabolic viability, following signal background-correction, was calculated as the percentage of signal normalized to the signal of the respective fully-untreated or chemotherapeutic-alone cells.

U2OS cells [4] = assay: [^177Lu]Lu-DOTA-TATE uptake; type: cell-based, human; settings: U2OS parental cells, 24-hour incubation, 25 nM DOTA-TATE, 0.74–1.03 MBq, mean ± SD, N = 3–4
Experimental: (§5) 1.5 × 10^5 U2OS/U2OS + SSTR2A or 2 × 10^5 BON1/BON1 + SSTR2A cells were seeded into 6-well plates in medium and allowed to adhere overnight in the incubator. The following day, 0.70–0.93 MBq (U2OS/U2OS + SSTR2A) or 0.75–1.03 MBq (BON1/BON1 + SSTR2A) [^177Lu]Lu-DOTA-TATE was added to wells (25 nM total DOTA-TATE) and incubated for 24 h. Excess [^177Lu]Lu-DOTA-TATE was then removed from wells and pooled together with two PBS washes (“Unbound” fraction). Cell-associated activity was harvested from wells by lysing cells with 0.5 M NaOH solution and pooled with a subsequent PBS wash (“Bound” fraction). Data was presented as percentage added activity (%AA) and activity per cell (Bq/cell).

BON1 + SSTR2A cells [5] = assay: Subcellular localisation of [^177Lu]Lu-DOTA-TATE; settings: no chemotherapeutic (Untreated), 24 h, 25 nM, mean ± SD, N = 3
Experimental: (§6) Subcellular localisation of [^177Lu]Lu-DOTA-TATE in cells followed the protocol for the uptake assays above, except that, following removal of excess [^177Lu]Lu-DOTA-TATE, cells were incubated with ice-cold 0.1 M glycine (pH 2.5) for 10 min prior to pooling with a further PBS wash (“Membrane” fraction). Cells were then detached with Accutase and diluted in medium prior to pelleting and transferring the supernatant to the “Cytoplasm” fraction. The cell pellet was resuspended in ice-cold cell lysis buffer (25 mM KCl, 5 mM MgCl2, 10 mM Tris-HCl, and 0.5% v/v IGEPAL CA-630) and incubated for 15 min. Intact nuclei were pelleted and separated from lysed cells by centrifugation (10,000 g, 3 min) and the supernatant removed and combined with the previous portion of the “Cytoplasm” fraction. Pelleted nuclei were resuspended in phosphate-buffered saline (PBS) and transferred to tubes to gamma counting (“Nuclear” fraction). The percentage distribution of [^177Lu]Lu-DOTA-TATE in cells was then calculated for the membrane, cytoplasm, and nucleus.

BON1 cells [6] = assay: [^177Lu]Lu-DOTA-TATE uptake; type: cell-based, human; settings: BON1 parental cells, 24-hour incubation, 25 nM DOTA-TATE, 0.74–1.03 MBq, mean ± SD, N = 3–4
Experimental: as §5

U2OS + SSTR2A cells [7] = assay: [^177Lu]Lu-DOTA-TATE uptake (with or without chemotherapeutic pre-treatment); settings: 25 nM DOTA-TATE, mean ± SD
Experimental: as §5
1.5 × 10^5 U2OS/U2OS + SSTR2A or 2 × 10^5 BON1/BON1 + SSTR2A cells were seeded into 6-well plates in DMEM-HG or DMEM/F-12 medium, respectively, and allowed to adhere overnight in the incubator. Cells where then treated with chemotherapeutics for 24 h at the following concentrations: 152 µg/mL hydroxyurea, 4 ng/mL gemcitabine, and 200 ng/mL triapine for U2OS/U2OS + SSTR2A cells; and 152 µg/mL hydroxyurea, 2 ng/mL gemcitabine, and 100 ng/mL triapine for BON1/BON1 + SSTR2A cells. Following a 4 h recovery period after chemotherapeutics, medium was replaced with 1 mL of medium containing [^177Lu]Lu-DOTA-TATE for 24 h at 0.7–0.93 MBq for U2OS/U2OS + SSTR2A cells or 0.75–1.03 MBq for BON1/BON1 + SSTR2A cells. […] Uptake and viability studies were then carried out as above.

U2OS + SSTR2A cells [8] = assay: Subcellular localisation of [^177Lu]Lu-DOTA-TATE; settings: no chemotherapeutic (Untreated), 24 h, 25 nM, mean ± SD, N = 3
Experimental: as §6

BON1 + SSTR2A cells [9] = assay: [^177Lu]Lu-DOTA-TATE uptake; type: cell-based, human; settings: 24-hour incubation, 25 nM DOTA-TATE, 0.74–1.03 MBq, mean ± SD, N = 3–4
U2OS cells [10] = assay: X-ray radiotherapy viability post chemotherapeutics; type: cell-based, human; settings: 24 h 2 mM HU, 4 ng/mL GEM, 200 ng/mL TRI, X-ray 0, 2 and 4 Gy, N = 3 (Figure S7)
Experimental: (§2) Cells where then treated with chemotherapeutics for 24 hours at 2 mM HU, 4 ng/mL GEM and 200 ng/mL TRI. Following chemotherapeutics, media was refreshed, and cells were X-ray irradiated at 0 (sham-irradiated), 2 and 4 Gy using the image-guided small animal radiotherapy system, SmART+, X-ray irradiator (Precision X-ray Irradiation). The calibrated dose-rate was 6.1796 Gy.min^-1; the X-ray beam used for treatment was set at a voltage of 225 kV, a current of 20 mA and passed through a 0.3 mm Cu filter. Viability analyses were then carried out as above.

U2OS + SSTR2A cells [11] = assay: as above; type: cell-based, human; settings: 24 h 2 mM HU, 4 ng/mL GEM, 200 ng/mL TRI, X-ray 0, 2 and 4 Gy, N = 3 (Figure S7)
Experimental: as §2

U2OS + SSTR2A cells [12] = assay: Viability after chemotherapeutic agents (GI50, MTT); type: cell-based; settings: Homo sapiens, 24 h treatment, further 5 days growth, from fitted curves, N = 3
Experimental: (§3) U2OS/U2OS + SSTR2A and BON1/BON1 + SSTR2A cells were seeded in 96-well plates at 2 × 10^3 and 4 × 10^3 cells/well, respectively, and allowed to adhere overnight in the incubator. Cells were then treated with a range of hydroxyurea, gemcitabine, and triapine concentrations for 24 h. Hydroxyurea in U2OS/U2OS + SSTR2A cells was used at 152 µg/mL for 24 h. Chemotherapeutics were then removed, and cells washed with PBS prior to returning to the incubator in fresh medium. Cells were then grown for a further 5 days post-chemotherapeutics prior to assessing metabolic viability, as described above. Chemotherapeutic concentrations needed to inhibit population growth by 50% (GI50) were then calculated.

BON1 + SSTR2A cells [13] = assay: as above; type: cell-based, human; settings: 24 h treatment, further 5 days growth, from fitted curves
Experimental: as §3

BON1 cells [14] = type: cell-based, human; settings: parental BON1 cells; label = chemotherapeutic pre-treatment; MTT at day 7, N = 3
Experimental: (§4) Excess MTT was then removed. Formazan crystals were dissolved with 50 μL/well in dimethylsulfoxide (DMSO) for 2 min at room temperature (RT) under gentle agitation. Well absorbance at 570 nm was then measured on a UV/V is absorbance microplate reader (SPECTROstar® Nano, BMG LABTECH). Metabolic viability, following signal-to-background correction, was calculated as the percentage signal in treated cells normalised to the signal in untreated cells.

U2OS cells [15] = type: cell-based, human; settings: parental U2OS cells; label = chemotherapeutic pre-treatment; MTT at day 7, N = 3
Experimental: as §4

[16] = Homo sapiens, N = 3, read-out: GI50

Compound: [177Lu+3].[Cl-].[Cl-].[Cl-] [[^177Lu]LuCl3]
Uptake of unchelated [^177Lu]LuCl3 (U2OS cells [1]): low
Uptake of unchelated [^177Lu]LuCl3 (U2OS + SSTR2A cells [2]): low
metabolic viability after [^177Lu]LuCl3 (U2OS + SSTR2A cells [3]; SSTR2A-expressing cells, 0.97 MBq for 24 hours, N = 3 (Figure S4)): only minor reductions in metabolic viability

Compound: DOTA-TATE
metabolic viability after non-radioactive DOTA-TATE (U2OS + SSTR2A cells [3]; U2OS + SSTR2A cells, 25 nM for 24 h, N = 4 (Figure S5)): did not reduce metabolic viability

Compound: C[C@@H](O)[C@H](NC(=O)[C@@H]1CSSC[C@H](NC(=O)[C@@H](Cc2ccccc2)NC(=O)CN2CCN(CC(=O)O)CCN(CC(=O)O)CCN(CC(=O)O)CC2)C(=O)N[C@@H](Cc2ccc(O)cc2)C(=O)N[C@H](Cc2c[nH]c3ccccc23)C(=O)N[C@@H](CCCCN)C(=O)N[C@@H]([C@@H](C)O)C(=O)N1)C(=O)O [[^177Lu]Lu-DOTA-TATE, [^177Lu]Lu-[DOTA^0-Tyr^3]octreotate, metal not drawn]
Uptake (mBq/cell) (U2OS cells [4]): 4.4 ± 1.0 mBq/cell
Uptake (%AA) (U2OS cells [4]; percentage added activity): 0.3 ± 0.0 %AA
Cytoplasm (%) of total uptake of [^177Lu]Lu-DOTA-TATE (BON1 + SSTR2A cells [5]): 90.2 ± 1.7%
Membrane (%) of total uptake of [^177Lu]Lu-DOTA-TATE (BON1 + SSTR2A cells [5]): 7.3 ± 1.0%
Nucleus (%) of total uptake of [^177Lu]Lu-DOTA-TATE (BON1 + SSTR2A cells [5]): 2.5 ± 0.7%
Uptake (mBq/cell) (BON1 cells [6]): 6.5 ± 6.3 mBq/cell
Uptake (%AA) (BON1 cells [6]; percentage added activity): 0.5 ± 0.3 %AA
Uptake (mBq/cell) (U2OS + SSTR2A cells [7]; U2OS + SSTR2A cells, 24-hour incubation, 0.74–1.03 MBq, N = 3–4): 216.9 ± 47.4 mBq/cell
Uptake (%AA) (U2OS + SSTR2A cells [7]; U2OS + SSTR2A cells, 24-hour incubation, 0.74–1.03 MBq, percentage added activity, N = 3–4): 17.8 ± 2.4 %AA
Internalized quantities of [^177Lu]Lu-DOTA-TATE (U2OS + SSTR2A cells [7]; untreated (no chemotherapeutic) U2OS + SSTR2A cells, 24 h, 0.7–1.03 MBq): 0.2 ± 0.05 Bq/cell
Cytoplasm (%) of total uptake of [^177Lu]Lu-DOTA-TATE (U2OS + SSTR2A cells [8]): 93.5 ± 0.9%
Membrane (%) of total uptake of [^177Lu]Lu-DOTA-TATE (U2OS + SSTR2A cells [8]): 4.1 ± 0.6%
Nucleus (%) of total uptake of [^177Lu]Lu-DOTA-TATE (U2OS + SSTR2A cells [8]): 2.3 ± 0.4%
Uptake (mBq/cell) (BON1 + SSTR2A cells [9]): 111.2 ± 16.5 mBq/cell
Uptake (%AA) (BON1 + SSTR2A cells [9]; percentage added activity): 9.6 ± 0.6 %AA

GI50 (U2OS + SSTR2A cells [12]): 0.0047 µg/mL (≈ 0.0179 µM)
Compound: Nc1ccn([C@@H]2O[C@H](CO)[C@@H](O)C2(F)F)c(=O)n1 [Gemcitabine, gemcitabine]
potentiation of X-ray radiation effects by chemotherapeutic pre-treatment (viability) (U2OS cells [10]): potentiation of radiation effects was seen
potentiation of X-ray radiation effects by chemotherapeutic pre-treatment (viability) (U2OS + SSTR2A cells [11]): potentiation of radiation effects was seen
GI50 (BON1 + SSTR2A cells [13]; [16]): 0.0022 µg/mL (≈ 0.00836 µM)
Effect on viability of combining chemotherapeutic with [^177Lu]Lu-DOTA-TATE (BON1 cells [14]): did not affect viability
Effect on viability of combining chemotherapeutic with [^177Lu]Lu-DOTA-TATE (U2OS cells [15]): did not affect viability

GI50 (U2OS + SSTR2A cells [12]): 0.12 µg/mL (≈ 0.617 µM)
Compound: NC(=S)N/N=C/c1ncccc1N [Triapine, triapine]
potentiation of X-ray radiation effects by chemotherapeutic pre-treatment (viability) (U2OS cells [10]): potentiation of radiation effects was seen
potentiation of X-ray radiation effects by chemotherapeutic pre-treatment (viability) (U2OS + SSTR2A cells [11]): potentiation of radiation effects was seen
GI50 (BON1 + SSTR2A cells [13]; [16]): 0.327 µg/mL (≈ 1.67 µM)
Effect on viability of combining chemotherapeutic with [^177Lu]Lu-DOTA-TATE (BON1 cells [14]): did not affect viability
Effect on viability of combining chemotherapeutic with [^177Lu]Lu-DOTA-TATE (U2OS cells [15]): did not affect viability

Compound: NC(=O)NO [Hydroxyurea, hydroxyurea]
potentiation of X-ray radiation effects by chemotherapeutic pre-treatment (viability) (U2OS cells [10]): potentiation of radiation effects was seen
potentiation of X-ray radiation effects by chemotherapeutic pre-treatment (viability) (U2OS + SSTR2A cells [11]): potentiation of radiation effects was seen
GI50 (BON1 + SSTR2A cells [13]; N = 3): 248.1 (152) µg/mL
Effect on viability of combining chemotherapeutic with [^177Lu]Lu-DOTA-TATE (BON1 cells [14]): did not affect viability
Effect on viability of combining chemotherapeutic with [^177Lu]Lu-DOTA-TATE (U2OS cells [15]): did not affect viability
